Columns and labels:
BRG-1 = biological target: T1, BRG-1 (Homo sapiens, UniProt P51532); test: ATPase catalytic activity of BRG-1, ADP-Glo in vitro biochemical assay; settings: ATPase catalytic activity, 30 nM BRG-1, 400 μM ATP, read-out: BRG1 IP50
T1 construct: made in house; host or cells: High Five insect cells

BRM = biological target: T2, BRM (Homo sapiens, UniProt P51531); test: ATPase catalytic activity of BRM, ADP-Glo in vitro biochemical assay; settings: ATPase catalytic activity, 30 nM BRM, 400 μM ATP, read-out: BRM IP50
T2 construct: made in house; host or cells: High Five insect cells
T2 sequence (P51531 whole entry): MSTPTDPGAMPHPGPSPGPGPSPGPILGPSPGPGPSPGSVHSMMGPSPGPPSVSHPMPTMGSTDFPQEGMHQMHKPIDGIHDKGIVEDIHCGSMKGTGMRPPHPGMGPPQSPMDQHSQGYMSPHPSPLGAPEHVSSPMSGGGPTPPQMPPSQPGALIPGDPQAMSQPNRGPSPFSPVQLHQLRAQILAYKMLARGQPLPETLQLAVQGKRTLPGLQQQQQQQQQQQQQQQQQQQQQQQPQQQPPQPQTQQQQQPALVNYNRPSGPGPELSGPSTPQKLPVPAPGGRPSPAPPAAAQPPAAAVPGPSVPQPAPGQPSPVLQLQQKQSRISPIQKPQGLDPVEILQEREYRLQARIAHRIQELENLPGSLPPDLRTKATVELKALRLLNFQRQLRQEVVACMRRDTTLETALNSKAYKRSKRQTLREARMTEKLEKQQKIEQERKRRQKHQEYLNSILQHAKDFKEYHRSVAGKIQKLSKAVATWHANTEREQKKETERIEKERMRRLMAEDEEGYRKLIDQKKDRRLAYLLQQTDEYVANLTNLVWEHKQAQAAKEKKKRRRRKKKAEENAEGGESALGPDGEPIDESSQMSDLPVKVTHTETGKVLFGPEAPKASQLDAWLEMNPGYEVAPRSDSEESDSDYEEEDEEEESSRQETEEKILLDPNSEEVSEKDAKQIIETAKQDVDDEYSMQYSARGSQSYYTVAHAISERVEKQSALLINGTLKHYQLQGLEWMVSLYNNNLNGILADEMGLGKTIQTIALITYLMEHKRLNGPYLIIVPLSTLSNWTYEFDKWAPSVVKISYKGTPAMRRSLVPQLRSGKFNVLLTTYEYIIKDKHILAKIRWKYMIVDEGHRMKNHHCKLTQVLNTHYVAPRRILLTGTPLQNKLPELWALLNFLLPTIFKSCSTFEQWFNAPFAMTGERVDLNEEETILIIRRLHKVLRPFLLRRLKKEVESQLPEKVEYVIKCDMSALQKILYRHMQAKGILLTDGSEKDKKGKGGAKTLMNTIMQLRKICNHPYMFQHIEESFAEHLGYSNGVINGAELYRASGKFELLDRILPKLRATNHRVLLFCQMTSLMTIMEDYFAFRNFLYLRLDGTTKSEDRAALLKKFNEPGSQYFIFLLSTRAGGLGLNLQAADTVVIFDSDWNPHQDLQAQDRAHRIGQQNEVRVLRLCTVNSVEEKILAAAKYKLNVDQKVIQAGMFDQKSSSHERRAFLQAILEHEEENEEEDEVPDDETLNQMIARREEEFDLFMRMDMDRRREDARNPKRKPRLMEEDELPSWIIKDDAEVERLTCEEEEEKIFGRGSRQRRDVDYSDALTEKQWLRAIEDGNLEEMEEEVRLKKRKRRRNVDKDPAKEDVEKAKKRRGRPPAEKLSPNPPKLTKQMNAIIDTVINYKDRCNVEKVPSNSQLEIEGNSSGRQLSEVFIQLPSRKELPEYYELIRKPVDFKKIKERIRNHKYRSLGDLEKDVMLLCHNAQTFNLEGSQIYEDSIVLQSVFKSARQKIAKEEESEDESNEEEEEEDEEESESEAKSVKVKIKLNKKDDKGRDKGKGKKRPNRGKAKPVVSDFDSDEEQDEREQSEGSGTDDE

T1 sequence (P51532 whole entry): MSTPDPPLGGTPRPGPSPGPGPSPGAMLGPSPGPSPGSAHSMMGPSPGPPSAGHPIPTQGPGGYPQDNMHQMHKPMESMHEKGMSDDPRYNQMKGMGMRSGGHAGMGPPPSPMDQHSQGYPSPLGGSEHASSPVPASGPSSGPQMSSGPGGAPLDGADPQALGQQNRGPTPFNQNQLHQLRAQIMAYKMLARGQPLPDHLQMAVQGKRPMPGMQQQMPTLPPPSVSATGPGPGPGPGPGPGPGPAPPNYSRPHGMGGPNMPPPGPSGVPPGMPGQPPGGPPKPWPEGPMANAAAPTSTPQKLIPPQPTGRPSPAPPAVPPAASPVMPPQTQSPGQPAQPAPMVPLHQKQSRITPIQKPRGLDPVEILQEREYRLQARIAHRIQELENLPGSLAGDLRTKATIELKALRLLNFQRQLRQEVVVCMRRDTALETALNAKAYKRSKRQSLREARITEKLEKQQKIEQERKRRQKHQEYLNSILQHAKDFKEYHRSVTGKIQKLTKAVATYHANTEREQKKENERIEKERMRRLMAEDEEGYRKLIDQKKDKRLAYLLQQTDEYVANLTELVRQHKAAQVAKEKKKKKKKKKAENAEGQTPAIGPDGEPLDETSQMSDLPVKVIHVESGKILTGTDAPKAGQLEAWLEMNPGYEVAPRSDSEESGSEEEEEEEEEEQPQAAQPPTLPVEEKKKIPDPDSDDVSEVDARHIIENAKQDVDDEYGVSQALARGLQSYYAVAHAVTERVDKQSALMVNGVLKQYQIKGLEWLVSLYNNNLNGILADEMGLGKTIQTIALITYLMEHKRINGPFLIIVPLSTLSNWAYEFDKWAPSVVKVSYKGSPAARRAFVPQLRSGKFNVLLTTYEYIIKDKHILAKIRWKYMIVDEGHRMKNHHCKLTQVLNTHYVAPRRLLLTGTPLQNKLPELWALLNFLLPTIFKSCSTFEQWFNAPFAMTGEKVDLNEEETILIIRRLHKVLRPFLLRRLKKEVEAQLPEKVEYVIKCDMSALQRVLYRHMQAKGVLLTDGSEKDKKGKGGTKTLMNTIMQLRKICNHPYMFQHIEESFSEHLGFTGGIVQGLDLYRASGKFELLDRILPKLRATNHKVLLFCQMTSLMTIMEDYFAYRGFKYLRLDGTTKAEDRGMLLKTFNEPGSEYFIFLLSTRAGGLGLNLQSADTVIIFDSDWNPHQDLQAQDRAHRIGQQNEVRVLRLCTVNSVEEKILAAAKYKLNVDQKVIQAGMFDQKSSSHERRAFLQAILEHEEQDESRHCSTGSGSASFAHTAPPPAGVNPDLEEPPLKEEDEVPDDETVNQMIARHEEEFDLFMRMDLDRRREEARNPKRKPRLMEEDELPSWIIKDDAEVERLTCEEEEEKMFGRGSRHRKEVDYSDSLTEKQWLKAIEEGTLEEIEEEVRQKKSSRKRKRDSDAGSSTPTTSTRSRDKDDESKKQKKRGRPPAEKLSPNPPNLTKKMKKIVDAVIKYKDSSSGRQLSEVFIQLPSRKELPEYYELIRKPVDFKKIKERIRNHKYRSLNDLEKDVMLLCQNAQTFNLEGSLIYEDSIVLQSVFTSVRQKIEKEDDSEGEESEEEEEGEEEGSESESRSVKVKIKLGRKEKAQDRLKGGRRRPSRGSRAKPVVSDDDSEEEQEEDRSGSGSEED

SMILES | IC50 (BRG-1) | IC50 (BRM)
Cn1ccc2ccc(-c3csc(NC(=O)CNC(=O)c4ccn(C56CC(C5)C6)c4)n3)cc2c1=O [Compound 493] | > 100 nM | > 100 nM
Cn1cnc2ccc(-c3csc(NC(=O)CNC(=O)c4ccn(C(C)(C)C)c4)n3)cc2c1=O [Compound 494] | > 10 nM | > 10 nM
CC(C)(C)n1ccc(C(=O)NCC(=O)Nc2nc(-c3cccc(C4(CO)CC4)n3)cs2)c1 [Compound 495] | > 100 nM | > 10 nM
N#CC1(n2ccc(C(=O)NCC(=O)Nc3nc(-c4cccc(OC(F)(F)F)n4)cs3)c2)CC1 [Compound 496] | > 100 nM | > 100 nM
CC(C)(F)COc1cccc(-c2csc(NC(=O)CNC(=O)c3ccn(C4(C#N)CC4)c3)n2)n1 [Compound 498] | > 100 nM | > 100 nM
CS(=O)(=O)n1ccc(C(=O)NCC(=O)Nc2nc(-c3cccc(N4CCC4)c3F)cs2)c1 [Compound 499] | < 10 nM | < 10 nM
CS(=O)(=O)n1ccc(C(=O)NCC(=O)Nc2nc(-c3cccc(OC(F)(F)F)c3F)cs2)c1 [Compound 501] | > 100 nM | > 10 nM
CS(=O)(=O)n1ccc(C(=O)NCC(=O)Nc2nc(-c3cccc(OCC4(F)COC4)c3)cs2)c1 [Compound 502] | > 10 nM | > 10 nM
CC(C)(C)n1ccc(C(=O)NCC(=O)Nc2nc(-c3cccc(OC(F)(F)F)n3)cs2)c1 [Compound 503] | > 100 nM | > 100 nM
Cn1ccc2ccc(-c3csc(NC(=O)CNC(=O)c4ccn(C5(C)CCC5)c4)n3)cc2c1=O [Compound 504] | > 10 nM | > 10 nM
C[C@@]1(n2ccc(C(=O)NCC(=O)Nc3nc(-c4cccc(N5CCC5)c4)cs3)c2)CCOC1 [Compound 505] | > 100 nM | > 100 nM
C[C@]1(n2ccc(C(=O)NCC(=O)Nc3nc(-c4cccc(N5CCC5)c4)cs3)c2)CCOC1 [Compound 506] | > 100 nM | > 10 nM
CS(=O)(=O)n1ccc(C(=O)NCC(=O)Nc2nc(-c3cccc(OC4CCC4)c3F)cs2)c1 [Compound 507] | > 10 nM | > 10 nM
CC(C)(C)n1ccc(C(=O)NCC(=O)Nc2nc(-c3cccc(OCC4(F)COC4)c3)cs2)c1 [Compound 509] | > 100 nM | > 100 nM
CC1(n2ccc(C(=O)NCC(=O)Nc3nc(-c4ccc(F)c(N5CCC5)c4)cs3)c2)COC1 [Compound 510] | > 10 nM | > 10 nM
CS(=O)(=O)n1ccc(C(=O)NCC(=O)Nc2nc(-c3ccc(F)c(N4CCC4)c3)cs2)c1 [Compound 511] | < 10 nM | < 10 nM
CC(C)(C)n1ccc(C(=O)NCC(=O)Nc2nc(-c3cccc(OC(F)F)n3)cs2)c1 [Compound 512] | > 100 nM | > 100 nM
CO[C@H]1C[C@H](c2cccc(-c3csc(NC(=O)CNC(=O)c4ccn(C(C)(C)C)c4)n3)n2)C1 [Compound 514] | > 100 nM | > 100 nM
CO[C@H]1C[C@@H](c2cccc(-c3csc(NC(=O)CNC(=O)c4ccn(C(C)(C)C)c4)n3)n2)C1 [Compound 515] | > 100 nM | > 10 nM
N#CC1(n2ccc(C(=O)NCC(=O)Nc3nc(-c4ccc(F)c(N5CCC5)c4)cs3)c2)CC1 [Compound 516] | > 10 nM | > 10 nM
C[C@@H]1Cc2ccc(-c3csc(NC(=O)CNC(=O)c4ccn(S(C)(=O)=O)c4)n3)cc2O1 [Compound 517] | > 10 nM | > 10 nM
CS(=O)(=O)n1ccc(C(=O)NCC(=O)Nc2nc(-c3cc(F)cc(N4CCC4)c3)cs2)c1 [Compound 518] | < 10 nM | < 10 nM
CC1(n2ccc(C(=O)NCC(=O)Nc3nc(-c4cc(F)cc(N5CCC5)c4)cs3)c2)COC1 [Compound 519] | > 10 nM | > 10 nM
C[C@@H]1CN(c2cccc(-c3nc(NC(=O)CNC(=O)c4ccn(C(C)(C)C)c4)sc3F)n2)C[C@H](C)O1 [Compound 520, 1-(tert-butyl)-N-(2-((4-(6-(cis-2,6-dimethylmorpholino)pyridin-2-yl)-5-fluorothiazol-2-yl)amino)-2-oxoethyl)-1H-pyrrole-3-carboxamide] | > 100 nM | > 10 nM
N#CC1(n2ccc(C(=O)NCC(=O)Nc3nc(-c4cc(F)cc(N5CCC5)c4)cs3)c2)CC1 [Compound 521] | > 10 nM | < 10 nM
N#CC1(n2ccc(C(=O)NCC(=O)Nc3nc(-c4cccc(OC(F)F)n4)cs3)c2)CC1 [Compound 522] | > 100 nM | > 100 nM
Cc1cncc(-c2cccc(-c3csc(NC(=O)CNC(=O)c4ccn(C5(C)COC5)c4)n3)n2)n1 [Compound 523, 1-(3-methyloxetan-3-yl)-N-[2-[[4-[6-(6-methylpyrazin-2-yl)-2-pyridyl]thiazol-2-yl]amino]-2-oxo-ethyl]pyrrole-3-carboxamide] | > 10 nM | > 10 nM
N#CC1(n2ccc(C(=O)NCC(=O)Nc3nc(-c4cccc(N5CCC5)c4F)cs3)c2)CC1 [Compound 524] | > 10 nM | < 10 nM

SMILES | IC50 (BRG-1) | IC50 (BRM)
CC1(n2ccc(C(=O)NCC(=O)Nc3nc(-c4cccc(N5CCC5)c4F)cs3)c2)COC1 [Compound 525] | > 10 nM | > 10 nM
COC[C@H](NC(=O)c1ccn(C2(C#N)CC2)c1)C(=O)Nc1nc(-c2ccc3ccn(C)c(=O)c3c2)cs1 [Compound 526] | > 10 nM | > 10 nM
C[C@H]1Cc2ccc(-c3csc(NC(=O)CNC(=O)c4ccn(S(C)(=O)=O)c4)n3)cc2O1 [Compound 527] | > 10 nM | > 10 nM
N#CC1(n2ccc(C(=O)NCC(=O)Nc3nc(-c4cccc(OCC5(F)COC5)c4)cs3)c2)CC1 [Compound 528] | > 100 nM | > 100 nM
Cc1cncc(-c2cccc(-c3csc(NC(=O)CNC(=O)c4ccn(C5(C)COC5)c4)n3)c2)n1 [Compound 529] | > 10 nM | < 10 nM
CO[C@H]1C[C@H](c2cccc(-c3csc(NC(=O)CNC(=O)c4ccn(S(C)(=O)=O)c4)n3)c2)C1 [Compound 530] | > 10 nM | > 10 nM
CO[C@H]1C[C@H](c2ccc(-c3csc(NC(=O)CNC(=O)c4ccn(S(C)(=O)=O)c4)n3)cc2)C1 [Compound 531] | > 10 nM | > 10 nM
C[C@H](NC(=O)c1ccn(C2(C#N)CC2)c1)C(=O)Nc1nc(-c2ccc3ccn(C)c(=O)c3c2)cs1 [Compound 532] | > 10 nM | > 10 nM
CS(=O)(=O)n1ccc(C(=O)NCC(=O)Nc2nc(-c3cccc(N4CCC(C(F)F)CC4)c3)cs2)c1 [Compound 543] | > 10 nM | > 10 nM
CS(=O)(=O)n1ccc(C(=O)NCC(=O)Nc2nc(-c3cc(F)c4c(c3)CCO4)cs2)c1 [Compound 544] | < 10 nM | < 10 nM
COC[C@H](NC(=O)c1ccn(S(C)(=O)=O)c1)C(=O)Nc1nc(-c2ccc(F)c(OC3CC3)c2)cs1 [Compound 545] | > 100 nM | > 10 nM
CN1CCOc2c(F)cc(-c3csc(NC(=O)CNC(=O)c4ccn(S(C)(=O)=O)c4)n3)cc21 [Compound 546] | < 10 nM | < 10 nM
CC(C)(C)n1ccc(C(=O)NCC(=O)Nc2nc(-c3cccc(OC4CC4)c3F)cs2)c1 [Compound 547] | > 100 nM | > 10 nM
CC1(n2ccc(C(=O)NCC(=O)Nc3nc(-c4cccc(OC5CC5)c4F)cs3)c2)COC1 [Compound 548] | > 100 nM | > 100 nM
COC[C@H](NC(=O)c1ccn(S(C)(=O)=O)c1)C(=O)Nc1nc(-c2ccc(F)c(N3CCC3)c2)cs1 [Compound 549] | > 10 nM | < 10 nM
COC[C@H](NC(=O)c1ccn(C(C)(C)C)c1)C(=O)Nc1nc(-c2ccc3c(=O)n(C)ccc3c2)cs1 [Compound 551] | > 10 nM | > 10 nM
CS(=O)(=O)n1ccc(C(=O)NCC(=O)Nc2nc(-c3cccc(N4CC[C@H](N)C(F)(F)C4)c3)cs2)c1 [Compound 552] | > 10 nM | > 10 nM
N#CC1(n2ccc(C(=O)NCC(=O)Nc3nc(-c4cccc(OC(F)(F)F)c4)cs3)c2)CC1 [Compound 553] | > 10 nM | > 10 nM
N#CC1(n2ccc(C(=O)NCC(=O)Nc3nc(-c4cccc(OC5CC5)c4)cs3)c2)CC1 [Compound 554, 1-(1-cyanocyclopropyl)-N-[2-[[4-[3-(cyclopropoxy)phenyl]thiazol-2-yl]amino]-2-oxo-ethyl]pyrrole-3-carboxamide] | > 100 nM | > 10 nM
N#CC1(n2ccc(C(=O)NCC(=O)Nc3nc(-c4cc(F)cc(OC5CC5)c4)cs3)c2)CC1 [Compound 555] | > 10 nM | > 10 nM
N#CC1(n2ccc(C(=O)NCC(=O)Nc3nc(-c4cccc(OC5CC5)c4F)cs3)c2)CC1 [Compound 556] | > 100 nM | > 10 nM
COC[C@H](NC(=O)c1ccn(S(C)(=O)=O)c1)C(=O)Nc1nc(-c2cccc(N3CCC(C(F)F)CC3)c2)cs1 [Compound 557, (S)—N-(1-((4-(3-(4-(difluoromethyl)piperidin-1-yl)phenyl)thiazol-2-yl)amino)-3-methoxy-1-oxopropan-2-yl)-1-(methylsulfonyl)-1H-pyrrole-3-carboxamide] | > 10 nM | > 10 nM
CS(=O)(=O)n1ccc(C(=O)NCC(=O)Nc2nc(-c3cccc(N4CC[C@@H](N)C(F)(F)C4)c3)cs2)c1 [Compound 558] | < 10 nM | < 10 nM
N#CC1(n2ccc(C(=O)NCC(=O)Nc3nc(-c4cccc(OC5CC5)n4)cs3)c2)CC1 [Compound 559] | > 100 nM | > 100 nM
C[C@@H]1CN(c2cccc(-c3csc(NC(=O)[C@H](C)NC(=O)c4ccn(C5(C#N)CC5)c4)n3)n2)C[C@H](C)O1 [Compound 560] | > 10 nM | > 10 nM
COC[C@H](NC(=O)c1ccn(C(C)(C)C)c1)C(=O)Nc1nc(-c2ccc3c(F)cn(C)c(=O)c3c2)cs1 [Compound 561] | < 10 nM | < 10 nM
Cn1ccc(-c2cccc(-c3csc(NC(=O)CNC(=O)c4ccn(C(C)(C)C#N)c4)n3)c2)n1 [Compound 562] | > 10 nM | < 10 nM
